According to patent publication US20070185167A1, “SODIUM SALTS OF 5-[4-[2-(N-METHYL-N-(2-PYRIDYL)AMINO)ETHOXY]BENZYL]THIAZOLIDINE-2,4-DIONE” (SmithKline Beecham p.l.c., priority 2000, published 2007):

Tests used:
[1] = especially under humid conditions
[2] = 25° C and 75% relative humidity, approximately constant weight
Text: For the avoidance of doubt when used herein the terms “non-hygroscopic”, “slightly hygroscopic”, “moderately hygroscopic” and “very hygroscopic” are to have the meanings defined by the above mentioned criteria.

- solid state stability [1]: good solid state stability
- hygroscopicity classification (% weight gain) [2]: non-hygroscopic (<2%)
SMILES: CN(CCOc1ccc(CC2SC(=O)NC2=O)cc1)c1ccccn1.[Na] (centres unmarked) [Sodium Salt, 5-[4-[2-(N-Methyl-N-(2-pyridyl)amino)ethoxy]benzyl]thiazolidine-2,4-dione, Sodium Salt]
